Test results published in US20200270647A1, “TRANSGENIC STRAIN FOR PRODUCING SUCCINATE AND METHOD FOR PRODUCING SUCCINATE” (NATIONAL CHIAO TUNG UNIVERSITY, priority 2019, published 2020).

Tested on: PCC7942 cyanobacterium strain
Procedure: The bacterium amount (cell amount) was monitored by measuring the optical density (OD) of the culture medium at a wavelength of 730 nm using the Biotek epoch 2 microplate spectrophotometer. The OD730 is calculated based on a recalibration of an optical path length 1 cm.

Row | SMILES | growth inhibition effect on the cyanobacterium strain (wild-type PCC7942 in BG-11, different concentrations, cell density observed for three days, versus sodium chloride with same sodium concentration) | toxicity to the growth or persistence of the cyanobacterium strain
1 | O=C([O-])CCC(=O)[O-].[Na+].[Na+] [disodium succinate] | almost equivalent to the growth inhibition effect of sodium chloride | 
2 | O=C(O)CCC(=O)O [succinate] |  | not toxic
